Data reported in US6569449B1, “Transdermal delivery of opioid antagonist prodrugs” (University of Kentucky Research Foundation, priority 2000, dated 2003).
≈ marks a conversion by molar mass, not a printed value. Read-outs that look alike come from different tables or passages of the source.

Assays:
[1] = Octanol/water partition coefficients; type: physicochemical; conditions: octanol/pH 7.4 isotonic phosphate buffer, room temperature; read-out: Experimental log P
Method: The octanol/water partition coefficients were determined using pH 7.4 isotonic phosphate buffer as the aqueous phase. All steps were carried out at room temperature. An appropriate amount of drug was weighed into a vial and dissolved in a known amount of octanol. An equivalent amount of buffer was then added to the vial and the phases shaken for 24 hours. The vials were left undisturbed for at least one hour after shaking. An exact volume was taken from the aqueous phase, diluted with acetonitrile, and then analyzed by HPLC. The final pH of the aqueous phase at the end of the shaking period was 7.95. Similarly, an exact volume was taken from the octanol phase, diluted with acetonitrile, and then analyzed by HPLC. Partition coefficients were calculated by determining the phase concentration ratios.

[2] = Solubilities in light mineral oil and pH 7.4 isotonic phosphate buffer; type: physicochemical; conditions: thermodynamic from solid, 32° C., 48 hours equilibration
Method: The solubilities of naltrexone and its esters were obtained by equilibrating large excesses of each substance with the respective vehicle, light mineral oil, or pH 7.4 isotonic phosphate buffer at 32° C. To hasten the attainment of equilibrium, each slurry was continuously shaken in a sealed container in a shaking incubation oven. Samples were taken, filtered (mineral oil:Millex FG-13, Millipore and buffer:glass microfiber, Gelman) above 32° C., measured with respect to volume, and diluted with the appropriate amount of acetonitrile. The diluted samples were analyzed by HPLC. The initial forty percent of each filtrate was discarded to eliminate the possibility that adsorption of drug on the filter and/or the filtering apparatus might influence the solubility determination. The sampling procedure was repeated at least once for each sample. […] Therefore, the equilibration times for all the studies were 48 hours.

Question: Which logP at 24 h [1] does the source give for `O=C1CC[C@@]2(O)[C@H]3Cc4ccc(O)c5c4[C@@]2(CCN3CC2CC2)[C@H]1O5` [NTX, Naltrexone] here?
Answer: 0.67

Question: And the solubility at 48 h ([2]; aqueous buffer, pH 7.4 isotonic phosphate buffer, read-out: Phosphate Buffer Solubility pH 7.4 32° C.)?
Answer: 15.2 mM (≈ 5190 µg/mL)

Question: What about the solubility at 48 h ([2]; oil or lipid, light mineral oil, read-out: Light Mineral Oil Solubility 32° C.) of the same compound?
Answer: 0.258 mM (≈ 88.1 µg/mL)
